Here are results for nine molecules from BindingDB's records for doi:10.1021/acsmedchemlett.7b00164 (Shenyang Pharmaceutical University, 2017).

Molecules are shown by their SMILES.

The experiment is described as follows: Inhibition of PDGFR in mouse NIH/3T3 cells assessed as reduction in recombinant human PDGF-BB-induced cell proliferation after 42 hrs by cell titer 96 aqueous one solution based assay.
On to `COC(=O)c1ccc2c(c1)NC(=O)/C2=C(\Nc1ccc(N2C(=O)CC[C@@H]2CN2CCN(C)CC2)cc1)c1ccccc1`, for which the IC50 worked out at 97 nM.
`COC(=O)c1ccc2c(c1)NC(=O)/C2=C(\Nc1ccc2c(c1)N(C(=O)Cn1cncn1)CC2)c1ccccc1`: the IC50 came to 100 nM.
For `COC(=O)c1ccc2c(c1)NC(=O)/C2=C(\Nc1ccc2c(c1)N(C(=O)CN1CC(C)OC(C)C1)CC2)c1ccccc1` (centres undefined), the IC50 amounted to 150 nM.
For `COC(=O)c1ccc2c(c1)NC(=O)/C2=C(\Nc1ccc2c(c1)N(C(=O)Cn1cccn1)CC2)c1ccccc1`, the IC50 stood at 110 nM.
The result for `COC(=O)c1ccc2c(c1)NC(=O)/C2=C(\Nc1ccc(N2C(=O)CC[C@H]2CN2CCN(C)CC2)cc1)c1ccccc1` reads 110 nM; that for `COC(=O)c1ccc2c(c1)NC(=O)/C2=C(\Nc1ccc(N(C)C(=O)CN2CCN(C)CC2)cc1)c1ccccc1` [BIBF-1120], 85 nM; that for `COC(=O)c1ccc2c(c1)NC(=O)/C2=C(\Nc1ccc2c(c1)N(C(=O)CN1CCCC1=O)CC2)c1ccccc1`, 260 nM.
The same measure for `COC(=O)c1ccc2c(c1)NC(=O)/C2=C(\Nc1ccc(N2CCC(CN3CCN(C)CC3)C2=O)cc1)c1ccccc1` (centres undefined): 110 nM; for `COC(=O)c1ccc2c(c1)NC(=O)/C2=C(\Nc1ccc2c(c1)N(C(=O)CN1CCOCC1)CC2)c1ccccc1`: 100 nM.
